Measured values taken from patent publication US6638973B2, “Taxane formulations” (FSU Research Foundation, Inc., priority 2000, dated 2003).

What follows are compounds tested on HCT116 cells (assay: In vitro cytotoxicity measured by the cell colony formation assay). Settings: HCT116 cells, 72 h incubation with drug, colonies counted after 7 days; ID50 = drug concentration producing 50% inhibition of colony formation; read-out: IN VITRO ID 50 (nm) HCT116.
Format: cell-based
How it was run: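 Colony-forming survival was scored 7 days after a 72 h, 37 °C compound exposure followed by washout into fresh medium.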
`CCOC(=O)O[C@H]1C(=O)[C@@]2(C)C([C@H](OC(=O)c3ccccc3)[C@]3(O)C[C@H](OC(=O)[C@H](O)[C@@H](NC(=O)C=C(C)C)c4cccs4)C(C)=C1C3(C)C)[C@]1(OC(C)=O)CO[C@@H]1C[C@@H]2O` (stereo partly shown) [Compound 4374] was tested, and the IC50 was less than 1 nM.
In the case of `CCOC(=O)O[C@H]1C(=O)[C@@]2(C)C([C@H](OC(=O)c3ccccc3)[C@]3(O)C[C@H](OC(=O)[C@H](O)[C@@H](NC(=O)c4ccccc4)c4cccs4)C(C)=C1C3(C)C)[C@]1(OC(C)=O)CO[C@@H]1C[C@@H]2O` (stereo partly shown) [Compound 2972], the IC50 is reported as less than 10 nM.
For `CCOC(=O)O[C@H]1C[C@H]2OC[C@@]2(OC(C)=O)C2[C@H](OC(=O)c3ccccc3)[C@]3(O)C[C@H](OC(=O)[C@H](O)[C@@H](NC(=O)OC(C)C)c4cccs4)C(C)=C([C@@H](O)C(=O)[C@@]21C)C3(C)C` (stereo partly shown) [Compound 4151], the IC50 was less than 1 nM.
Compound `CCOC(=O)O[C@H]1C(=O)[C@@]2(C)C([C@H](OC(=O)c3ccccc3)[C@]3(O)C[C@H](OC(=O)[C@H](O)[C@@H](NC(=O)c4cccs4)c4cccs4)C(C)=C1C3(C)C)[C@]1(OC(C)=O)CO[C@@H]1C[C@@H]2O` (stereo partly shown) [Compound 3020] has an IC50 of less than 1 nM.
For `CCOC(=O)O[C@H]1C[C@H]2OC[C@@]2(OC(C)=O)C2[C@H](OC(=O)c3ccccc3)[C@]3(O)C[C@H](OC(=O)[C@H](O)[C@H](C=C(C)C)NC(=O)OC(C)(C)C)C(C)=C([C@@H](O)C(=O)[C@@]21C)C3(C)C` (stereo partly shown) [Compound 4524], the IC50 was less than 1 nM.
For `CCOC(=O)O[C@H]1C[C@H]2OC[C@@]2(OC(C)=O)C2[C@H](OC(=O)c3ccccc3)[C@]3(O)C[C@H](OC(=O)[C@H](O)[C@@H](NC(=O)OC(C)(C)C)c4cccs4)C(C)=C([C@@H](O)C(=O)[C@@]21C)C3(C)C` (stereo partly shown) [Compound 4234], the IC50 was less than 1 nM.
`CCOC(=O)O[C@H]1C(=O)[C@@]2(C)C([C@H](OC(=O)c3ccccc3)[C@]3(O)C[C@H](OC(=O)[C@H](O)[C@@H](NC(=O)OC(C)(C)C)c4ccccn4)C(C)=C1C3(C)C)[C@]1(OC(C)=O)CO[C@@H]1C[C@@H]2O` (stereo partly shown) [Compound 1799] was tested, and the IC50 was less than 1 nM.

Same assay, conditions: HCT116 cells, colony formation, 72 h incubation with drug, colonies counted after 7 days; ID50 = drug concentration producing 50% inhibition of colony formation; read-out: IN VITRO ID 50 (nm) HCT116
Work on `CCNC(=O)O[C@H]1C(=O)[C@@]2(C)C([C@H](OC(=O)c3ccccc3)[C@]3(O)C[C@H](OC(=O)[C@H](O)[C@@H](NC(=O)OC(C)(C)C)C4CC4)C(C)=C1C3(C)C)[C@]1(OC(C)=O)CO[C@@H]1C[C@@H]2O` (stereo partly shown) [Compound 2757] yielded an IC50 of less than 1 nM.
`CCNC(=O)O[C@H]1C(=O)[C@@]2(C)C([C@H](OC(=O)c3ccccc3)[C@]3(O)C[C@H](OC(=O)[C@H](O)[C@@H](NC(=O)OC(C)(C)C)c4ccccn4)C(C)=C1C3(C)C)[C@]1(OC(C)=O)CO[C@@H]1C[C@@H]2O` (stereo partly shown) [Compound 2600] showed an IC50 of less than 1 nM.

Same assay, conditions: HCT116 colony formation; 72 h drug incubation, colonies counted after 7 days; Example 5, C-7 ester/C-10 hydroxy taxanes; read-out: IN VITRO ID 50 (nm) HCT116
In the case of `CCCC(=O)O[C@H]1C[C@H]2OC[C@@]2(OC(C)=O)C2[C@H](OC(=O)c3ccccc3)[C@]3(O)C[C@H](OC(=O)[C@H](O)[C@@H](NC(=O)OC(C)(C)C)c4cccs4)C(C)=C([C@@H](O)C(=O)[C@@]21C)C3(C)C` (stereo partly shown) [Compound 4256], the IC50 is reported as less than 1 nM.
For `CCC(=O)O[C@H]1C[C@H]2OC[C@@]2(OC(C)=O)C2[C@H](OC(=O)c3ccccc3)[C@]3(O)C[C@H](OC(=O)[C@H](O)[C@@H](NC(=O)c4ccco4)c4cccs4)C(C)=C([C@@H](O)C(=O)[C@@]21C)C3(C)C` (stereo partly shown) [Compound 3069], the IC50 was less than 1 nM.
Compound `CCC(=O)O[C@H]1C[C@H]2OC[C@@]2(OC(C)=O)C2[C@H](OC(=O)c3ccccc3)[C@]3(O)C[C@H](OC(=O)[C@H](O)[C@@H](NC(=O)OC(C)(C)C)c4ccccn4)C(C)=C([C@@H](O)C(=O)[C@@]21C)C3(C)C` (stereo partly shown) [Compound 1364] has an IC50 of less than 10 nM.
`CCC(=O)O[C@H]1C[C@H]2OC[C@@]2(OC(C)=O)C2[C@H](OC(=O)c3ccccc3)[C@]3(O)C[C@H](OC(=O)[C@H](O)[C@@H](NC(=O)OCC(C)C)c4ccco4)C(C)=C([C@@H](O)C(=O)[C@@]21C)C3(C)C` (stereo partly shown) [Compound 3196] was tested, and the IC50 was less than 10 nM.
`CC(=O)O[C@@]12CO[C@@H]1C[C@H](OC(=O)C=C(C)C)[C@@]1(C)C(=O)[C@H](O)C3=C(C)[C@@H](OC(=O)[C@H](O)[C@@H](NC(=O)OCC(C)C)c4ccco4)C[C@@](O)([C@@H](OC(=O)c4ccccc4)C12)C3(C)C` (stereo partly shown) [Compound 6040] showed an IC50 of less than 10 nM.
`CCCC(=O)O[C@H]1C[C@H]2OC[C@@]2(OC(C)=O)C2[C@H](OC(=O)c3ccccc3)[C@]3(O)C[C@H](OC(=O)[C@H](O)[C@@H](NC(=O)C=C(C)C)c4cccs4)C(C)=C([C@@H](O)C(=O)[C@@]21C)C3(C)C` (stereo partly shown) [Compound 4312] showed an IC50 of less than 1 nM.
`CCC(=O)O[C@H]1C[C@H]2OC[C@@]2(OC(C)=O)C2[C@H](OC(=O)c3ccccc3)[C@]3(O)C[C@H](OC(=O)[C@H](O)[C@H](C=C(C)C)NC(=O)OCC(C)C)C(C)=C([C@@H](O)C(=O)[C@@]21C)C3(C)C` (stereo partly shown) [Compound 5121] was tested, and the IC50 was 21.1 nM.
For `CCC(C)(C)OC(=O)N[C@@H](c1ccco1)[C@@H](O)C(=O)O[C@H]1C[C@@]2(O)[C@@H](OC(=O)c3ccccc3)C3[C@](C)(C(=O)[C@H](O)C(=C1C)C2(C)C)[C@@H](OC(=O)CC(C)C)C[C@H]1OC[C@@]31OC(C)=O` (stereo partly shown) [Compound 6282], the IC50 was less than 10 nM.

Same assay, conditions: HCT116 colony formation; 72 h drug incubation, colonies counted after 7 days; Example 10, C-10 ester/C-7 hydroxy taxanes; read-out: IN VITRO ID 50 (nm) HCT116
With `CC(=O)O[C@@]12CO[C@@H]1C[C@H](O)[C@@]1(C)C(=O)[C@H](OC(=O)C=C(C)C)C3=C(C)[C@@H](OC(=O)[C@H](O)[C@@H](NC(=O)OC(C)(C)C)c4ccccc4)C[C@@](O)([C@@H](OC(=O)c4ccccc4)C12)C3(C)C` (stereo partly shown) [Compound 2520] the IC50 was less than 10 nM.
With `CC(=O)O[C@@]12CO[C@@H]1C[C@H](O)[C@@]1(C)C(=O)[C@H](OC(=O)C3CC3)C3=C(C)[C@@H](OC(=O)[C@H](O)[C@@H](NC(=O)OC(C)(C)C)c4cccs4)C[C@@](O)([C@@H](OC(=O)c4ccccc4)C12)C3(C)C` (stereo partly shown) [Compound 0854] the IC50 was less than 1 nM.
With `CC(=O)O[C@@]12CO[C@@H]1C[C@H](O)[C@@]1(C)C(=O)[C@H](OC(=O)C3CC3)C3=C(C)[C@@H](OC(=O)[C@H](O)[C@@H](NC(=O)OC(C)C)c4ccco4)C[C@@](O)([C@@H](OC(=O)c4ccccc4)C12)C3(C)C` (stereo partly shown) [Compound 3853] the IC50 was less than 1 nM.
`C/C=C/C(=O)N[C@@H](c1ccoc1)[C@@H](O)C(=O)O[C@H]1C[C@@]2(O)[C@@H](OC(=O)c3ccccc3)C3[C@](C)(C(=O)[C@H](OC(=O)CC)C(=C1C)C2(C)C)[C@@H](O)C[C@H]1OC[C@@]31OC(C)=O` (stereo partly shown) [Compound 4888] was tested, and the IC50 was less than 1 nM.
Work on `CCC(=O)O[C@H]1C(=O)[C@@]2(C)C([C@H](OC(=O)c3ccccc3)[C@]3(O)C[C@H](OC(=O)[C@H](O)[C@@H](NC(=O)OC(C)(C)C)c4cccs4)C(C)=C1C3(C)C)[C@]1(OC(C)=O)CO[C@@H]1C[C@@H]2O` (stereo partly shown) [Compound 0550] yielded an IC50 of less than 10 nM.
`CC(=O)O[C@@]12CO[C@@H]1C[C@H](O)[C@@]1(C)C(=O)[C@H](OC(=O)C(C)C)C3=C(C)[C@@H](OC(=O)[C@H](O)[C@@H](NC(=O)OC(C)(C)C)c4ccncc4)C[C@@](O)([C@@H](OC(=O)c4ccccc4)C12)C3(C)C` (stereo partly shown) [Compound 2255] was tested, and the IC50 was less than 1 nM.
Work on `CC(=O)O[C@@]12CO[C@@H]1C[C@H](O)[C@@]1(C)C(=O)[C@H](OC(=O)C3CC3)C3=C(C)[C@@H](OC(=O)[C@H](O)[C@@H](NC(=O)c4ccccc4)C4CC4)C[C@@](O)([C@@H](OC(=O)c4ccccc4)C12)C3(C)C` (stereo partly shown) [Compound 0923] yielded an IC50 of less than 1 nM.
Work on `CCCC(=O)OC1C(=O)C2(C)C(O)CC3OCC3(OC(C)=O)C2C(OC(=O)c2ccccc2)C2(O)CC(OC(=O)C(O)C(NC(=O)OC(C)(C)C)C3CC3)C(C)=C1C2(C)C` (stereo not shown) [Compound 1020] yielded an IC50 of less than 1 nM.
`CC(=O)O[C@@]12CO[C@@H]1C[C@H](O)[C@@]1(C)C(=O)[C@H](OC(=O)C3CC3)C3=C(C)[C@@H](OC(=O)[C@H](O)[C@@H](NC(=O)OC(C)(C)C)c4ccncc4)C[C@@](O)([C@@H](OC(=O)c4ccccc4)C12)C3(C)C` (stereo partly shown) [Compound 2813] showed an IC50 of less than 1 nM.
In the case of `CC(=O)O[C@@]12CO[C@@H]1C[C@H](O)[C@@]1(C)C(=O)[C@H](OC(=O)C(C)C)C3=C(C)[C@@H](OC(=O)[C@H](O)[C@@H](NC(=O)OC(C)(C)C)c4ccoc4)C[C@@](O)([C@@H](OC(=O)c4ccccc4)C12)C3(C)C` (stereo partly shown) [Compound 2273], the IC50 is reported as less than 1 nM.
With `C/C=C/C(=O)N[C@@H](c1cccs1)[C@@H](O)C(=O)O[C@H]1C[C@@]2(O)[C@@H](OC(=O)c3ccccc3)C3[C@](C)(C(=O)[C@H](OC(=O)C4CC4)C(=C1C)C2(C)C)[C@@H](O)C[C@H]1OC[C@@]31OC(C)=O` (stereo partly shown) [Compound 3513] the IC50 was less than 1 nM.
In the case of `CCCC(=O)N[C@@H](c1cccs1)[C@@H](O)C(=O)O[C@H]1C[C@@]2(O)[C@@H](OC(=O)c3ccccc3)C3[C@](C)(C(=O)[C@H](OC(=O)CCC)C(=C1C)C2(C)C)[C@@H](O)C[C@H]1OC[C@@]31OC(C)=O` (stereo partly shown) [Compound 3148], the IC50 is reported as less than 1 nM.
`CC(=O)OC12COC1CC(O)C1(C)C(=O)C(OC(=O)c3cccs3)C3=C(C)C(OC(=O)C(O)C(NC(=O)OC(C)(C)C)c4ccccc4)CC(O)(C(OC(=O)c4ccccc4)C21)C3(C)C` (stereo not shown) [Compound 1988] showed an IC50 of less than 10 nM.
For `CC(=O)OC12COC1CC(O)C1(C)C(=O)C(OC(=O)c3ccco3)C3=C(C)C(OC(=O)C(O)C(NC(=O)OC(C)(C)C)c4ccoc4)CC(O)(C(OC(=O)c4ccccc4)C21)C3(C)C` (stereo not shown) [Compound 2159], the IC50 was less than 1 nM.
For `CCC(=O)O[C@H]1C(=O)[C@@]2(C)C([C@H](OC(=O)c3ccccc3)[C@]3(O)C[C@H](OC(=O)[C@H](O)[C@@H](NC(=O)OC(C)C)c4cccs4)C(C)=C1C3(C)C)[C@]1(OC(C)=O)CO[C@@H]1C[C@@H]2O` (stereo partly shown) [Compound 3361], the IC50 was less than 1 nM.
With `CCCC(=O)N[C@@H](c1ccco1)[C@@H](O)C(=O)O[C@H]1C[C@@]2(O)[C@@H](OC(=O)c3ccccc3)C3[C@](C)(C(=O)[C@H](OC(=O)C4CC4)C(=C1C)C2(C)C)[C@@H](O)C[C@H]1OC[C@@]31OC(C)=O` (stereo partly shown) [Compound 4062] the IC50 was less than 1 nM.
For `CC(=O)O[C@@]12CO[C@@H]1C[C@H](O)[C@@]1(C)C(=O)[C@H](OC(=O)C3CC3)C3=C(C)[C@@H](OC(=O)[C@H](O)[C@@H](NC(=O)OC(C)(C)C)c4ccco4)C[C@@](O)([C@@H](OC(=O)c4ccccc4)C12)C3(C)C` (stereo partly shown) [Compound 0843], the IC50 was less than 1 nM.
